How the values were obtained:
[1] = tested on: synthesis of LTB4 in human whole blood; assay: Human whole blood assay (calcimycin-stimulated LTB4 synthesis); assay type: cell-based; details: Homo sapiens; read-out: Human Whole Blood LTB4 Assay for FLAP (IC50 nM)
Procedure, shortened: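 Whole-blood cellular format, heparinized human donors: 15 min compound pretreatment, then 30 min calcimycin stimulation (20 μM final), both at 37° C. Low-speed centrifugation yields plasma, in which LTB4 is read by homogeneous time-resolved fluorescence immunoassay.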

[2] = biological target: T1, recombinant human FLAP protein (Homo sapiens, UniProt P20292); assay: FLAP binding assay (Scintillation Proximity Assay, displacement of [125I]L-691,831); details: read-out: Human FLAP SPA Binding (IC50 nM)
T1 construct: made in house; host or cells: Sf9 insect cells (membrane fraction, 100,000 x g pellet)
T1 sequence (P20292 1-161): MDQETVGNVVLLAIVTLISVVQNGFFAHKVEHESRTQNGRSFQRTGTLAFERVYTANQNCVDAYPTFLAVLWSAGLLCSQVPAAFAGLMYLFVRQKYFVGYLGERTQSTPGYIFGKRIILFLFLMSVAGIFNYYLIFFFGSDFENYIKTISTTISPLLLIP
Procedure, shortened: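 Scintillation proximity displacement format: 0.08 nM iodinated MK-591 analog [125I]L-691,831 competes with test compound for human FLAP in sf9 insect-cell membranes (5 μg/well, WGA beads), 2 h with shaking, pH 7.5 Tris buffer. 10 μM cold L-691,831 defines non-specific binding.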

IC50 [1] [nM] | IC50 [2] [nM] | SMILES
270 | 2.5 | COCCN(C)C(=O)c1cccc2c(C3(c4ccc(-c5cnc(N)nc5)cc4)CCC3)c[nH]c12 [Example 116, 3-{1-[4-(2-aminopyrimidin-5-yl)phenyl]cyclobutyl}-N-(2-methoxyethyl)-N-methyl-1H-indole-7-carboxamide]
30 | 1.1 | NC(=O)c1cccc2c(C3(c4ccc(-c5cnc(N)nc5)cc4)CCC3)c[nH]c12 [Example 117, 3-{1-[4-(2-aminopyrimidin-5-yl)phenyl]cyclobutyl}-1H-indole-7-carboxamide]
69 | 1.6 | Nc1ncc(-c2ccc(C3(c4c[nH]c5ccccc45)CCC3)cc2)cc1CO [Example 118, [2-amino-5-[4-[1-(1H-indol-3-yl)cyclobutyl]phenyl]-3-pyridyl]methanol]
170 | 1.5 | Nc1ncc(-c2ccc(C3(c4c[nH]c5c(C(=O)NCCO)cccc45)CCC3)cc2)cn1 [Example 119, 3-{1-[4-(2-aminopyrimidin-5-yl)phenyl]cyclobutyl}-N-(2-hydroxyethyl)-1H-indole-7-carboxamide]
> 5000 | 4.7 | Nc1ncc(-c2ccc(C3(c4cn(CCOCCO)c5ccccc45)CCC3)cc2)cn1 [Example 120, 2-[2-(3-{1-[4-(2-aminopyrimidin-5-yl)phenyl]cyclobutyl}-1H-indol-1-yl)ethoxy]ethanol]
810 | 8.7 | Nc1ncc(-c2ccc(C3(c4nnc(-c5ccccc5)[nH]4)CCC3)cn2)cn1 [Example 121, 5-{5-[1-(5-phenyl-4H-1,2,4-triazol-3-yl)cyclobutyl]pyridin-2-yl}pyrimidin-2-amine]
> 5000 | 75 | Cn1cc(C(c2ccc(-c3cnc(N)nc3)nc2)C(C)(C)C)c2ccccc21 (stereo not drawn) [Example 122, 5-{5-[2,2-dimethyl-1-(1-methyl-1H-indol-3-yl)propyl]pyridin-2-yl}pyrimidin-2-amine]
> 5000 | 7.9 | COC(=O)Cn1cc(C2(c3ccc(-c4cnc(N)nc4)cc3)CCC2)c2ccccc21 [Example 123, methyl (3-{1-[4-(2-aminopyrimidin-5-yl)phenyl]cyclobutyl}-1H-indol-1-yl)-acetate]
> 5000 | 5.5 | Nc1ncc(-c2ccc(C3(c4cn(CC(=O)O)c5ccccc45)CCC3)cc2)cn1 [Example 124, (3-{1-[4-(2-aminopyrimidin-5-yl)phenyl]cyclobutyl}-1H-indol-1-yl)acetic acid]
3400 | 250 | Nc1ncc(-c2ccc(C3(c4nc5ncccc5[nH]4)CCC3)cc2)cn1 [Example 125, 5-{4-[1-(1H-imidazo[4,5-b]pyridin-2-yl)cyclobutyl]phenyl}pyrimidin-2-amine]
1800 | 71 | Nc1ncc(-c2ccc(C3(c4nc5cnccc5[nH]4)CCC3)cc2)cn1 [Example 126, 5-{4-[1-(1H-imidazo[4,5-c]pyridin-2-yl)cyclobutyl]phenyl}pyrimidin-2-amine]
1900 | 7.2 | Nc1ncc(-c2ccc(C3(c4nc5ccccc5o4)CCC3)cc2)cn1 [Example 127, 5-{4-[1-(1,3-benzoxazol-2-yl)cyclobutyl]phenyl}pyrimidin-2-amine]
2300 | 8.1 | Nc1ncc(-c2ccc(C3(c4nc5ccccc5s4)CCC3)cc2)cn1 [Example 128, 5-{4-[1-(1,3-benzothiazol-2-yl)cyclobutyl]phenyl}pyrimidin-2-amine]
4000 | 7.6 | Cc1ccc(-c2nnc(C3(c4ccc(-c5cnc(N)nc5)cc4)CCC3)[nH]2)cn1 [Example 129, 5-(4-{1-[5-(6-methylpyridin-3-yl)-4H-1,2,4-triazol-3-yl]cyclobutyl}phenyl)pyrimidin-2-amine]
140 | 1.5 | c1cnc2[nH]cc(C3(c4ccc(-c5cnc6[nH]ccc6c5)cc4)CCC3)c2c1 [Example 130, 3-{1-[4-(1H-pyrrolo[2,3-b]pyridin-5-yl)phenyl]cyclobutyl}-1H-pyrrolo[2,3-b]pyridine]
920 | 5.5 | Cc1ccc(-c2nnc(C3(c4ccc(-c5cnc(N)nc5)cc4)CCC3)s2)cn1 [Example 131, 5-(4-{1-[5-(6-methylpyridin-3-yl)-1,3,4-thiadiazol-2-yl]cyclobutyl}phenyl)pyrimidin-2-amine]
> 5000 | 7.2 | CN(CCO)C(=O)Cn1cc(C2(c3ccc(-c4cnc(N)nc4)cc3)CCC2)c2ccccc21 [Example 132, 2-(3-{1-[4-(2-aminopyrimidin-5-yl)phenyl]cyclobutyl}-1H-indol-1-yl)-N-(2-hydroxyethyl)-N-methylacetamide]
> 5000 | 7.5 | Nc1ncc(-c2ccc(C3(c4cn(CC(=O)N5CC(O)C5)c5ccccc45)CCC3)cc2)cn1 [Example 133, 2-(3-{1-[4-(2-aminopyrimidin-5-yl)phenyl]cyclobutyl}-1H-indol-1-yl)-1-(3-hydroxyazetidin-1-yl)ethanone]
270 | 1.8 | Nc1ncc(-c2ccc(C3(c4c[nH]c5c(C(=O)N6CC[C@@H](O)C6)cccc45)CCC3)cc2)cn1 [Example 134, (3-{1-[4-(2-aminopyrimidin-5-yl)phenyl]cyclobutyl}-1H-indol-7-yl)[(3R)-3-hydroxypyrrolidin-1-yl]methanone]
500 | 2.3 | Nc1ncc(-c2ccc(C3(c4c[nH]c5c(C(=O)N6CC[C@H](O)C6)cccc45)CCC3)cc2)cn1 [Example 135, (3-{1-[4-(2-aminopyrimidin-5-yl)phenyl]cyclobutyl}-1H-indol-7-yl)[(3S)-3-hydroxypyrrolidin-1-yl]methanone]
> 5000 | 190 | Cn1c(C2(c3ccc(-c4cnc(N)nc4)cc3)CCC2)nc2ccccc21 [Example 136, 5-{4-[1-(1-methyl-1H-benzimidazol-2-yl)cyclobutyl]phenyl}pyrimidin-2-amine]
> 5000 | 410 | Nc1ncc(-c2ccc(C3(c4nc5ccccc5[nH]4)CCC3)cn2)cn1 [Example 137, 5-{5-[1-(1H-benzimidazol-2-yl)cyclobutyl]pyridin-2-yl}pyrimidin-2-amine]
990 | 18 | Nc1ncc(-c2ccc(C3(c4nc5ccccc5o4)CCC3)cn2)cn1 [Example 138, 5-{5-[1-(1,3-benzoxazol-2-yl)cyclobutyl]pyridin-2-yl}pyrimidin-2-amine]
> 5000 | 27 | Nc1ncc(-c2ccc(C3(c4nc5ccccc5[nH]4)CCC3)cc2)cn1 [Example 139, 5-{4-[1-(1H-benzimidazol-2-yl)cyclobutyl]phenyl}pyrimidin-2-amine]
> 5000 | 10 | Nc1ncc(-c2ccc(C3(c4nc5ccccc5s4)CCC3)cn2)cn1 [Example 140, 5-{5-[1-(1,3-benzothiazol-2-yl)cyclobutyl]pyridin-2-yl}pyrimidin-2-amine]
350 | 5.8 | Cc1cc2c(C3(c4ccc(-c5cnc(N)nc5)cc4)CCC3)c[nH]c2cn1 [Example 141, 5-{4-[1-(5-methyl-1H-pyrrolo[2,3-c]pyridin-3-yl)cyclobutyl]phenyl}pyrimidin-2-amine]
1500 | 12 | Nc1ncc(-c2ccc(C3(c4nnc(-c5ccc(F)cc5)[nH]4)CCC3)cn2)cn1 [Example 143, 5-(5-{1-[5-(4-fluorophenyl)-4H-1,2,4-triazol-3-yl]cyclobutyl}pyridin-2-yl)pyrimidin-2-amine]
